Reference: US12275737B2, “Polymorphs of a kinase inhibitor, pharmaceutical compositions containing such a compound, preparation methods, and applications” (Meryx, Inc., priority 2019, dated 2025)
Counter-ions that a name gives are not always drawn. Like-named read-outs stand apart in the source and are kept apart here. Values belong to the compound of their own block, whether it stands above or below them.

Key:
[1] = Determination of crystal form stability; assay type: physicochemical
[2] = Determination of saturated solubility; assay type: physicochemical; details: shaken 4 hours; for saturated solubility: 37° C.
Description: An appropriate amount of a sample of the compound is supersaturated in water at a pH of 1-8 and shaken at 37° C. for 4 hours with a shaker. The compound is sampled, centrifuged, then the supernatant is diluted and tested by HPLC. Calculations are compared to an external standard.
The saturated solubility of the compound of Crystal Form 1 and Crystal Form 2 of the compound of Formula I and MRX-2843 free base at 37° C. in different pH values are shown in Table 3.

[3] = Pharmacokinetics after oral capsule in male beagle dogs; assay type: in vivo; details: for absorption in the body compared with the free alkali of the compound of Formula I: conclusion from Table 6
Description: Nine male beagle dogs are divided into three groups, three in each group. They are each respectively administrated a 5 mg/kg oral capsule (PO) of Crystal Form 1, Crystal Form 2 and free base of the compound of Formula I (the dose is calculated according to the dose of the free base). Blood is collected from the jugular vein before administration and after administration for 15 minutes, 30 minutes, 1 hour, 2 hours, 4 hours, 6 hours, 8 hours, 10 hours, and 24 hours, and the plasma is separated and stored in a refrigerator at −80° C. LC-MS is subsequently used for analysis.

[4] = stored at 40° C./75% RH for 1, 3 and 6 months, trihydrochloride
[5] = pH 2.0, water, trihydrochloride
[6] = pH 3.0, water, trihydrochloride
[7] = pH 4.5, water, trihydrochloride
[8] = pH 6.0, water, trihydrochloride
[9] = pH 6.8, water, trihydrochloride
[10] = pH 7.4, water, trihydrochloride
[11] = pH 8.0, water, trihydrochloride
[12] = 5 mg/kg (as free base), plasma, trihydrochloride
[13] = male, beagle, dog, plasma, po, 5 mg/kg, 5 mg/kg (as free base)
[14] = 5 mg/kg (as free base), plasma, listed as Free base of the compound of Formula I

- crystal form after storage ([1]; stored at 5° C. for 18 and 24 months): remains unchanged
- crystal form after storage ([1]; stored at 25° C./60% RH for 1, 3, 6, 9, 12, 18 and 24 months): remained unchanged
- crystal form after storage [1, 4]: unchanged
- saturated solubility ([2]; pH 1.0, water, trihydrochloride): 535.05 mg/mL
- saturated solubility [2, 5]: 531.72 mg/mL
- saturated solubility [2, 6]: 512.80 mg/mL
- saturated solubility [2, 7]: 527.84 mg/mL
- saturated solubility [2, 8]: 546.95 mg/mL
- saturated solubility [2, 9]: 557.34 mg/mL
- saturated solubility [2, 10]: 516.01 mg/mL
- saturated solubility [2, 11]: 479.26 mg/mL
- AUCInf [3, 12]: 1,530 h * ng/mL
- AUClast [3, 12]: 1,323 h * ng/mL
- Cmax [3, 12]: 125 ng/mL
- Tmax [3, 12]: 2.00 h
- absorption in the body compared with the free alkali of the compound of Formula I ([3]; 5 mg/kg): better absorbed
Compound: CN1CCN(Cc2ccc(-c3cn([C@H]4CC[C@H](O)CC4)c4nc(NCCC5CC5)ncc34)cc2)CC1 [Crystal Form 2, trihydrochloride]

- crystal form after storage ([1]; stored at 25° C./60% RH for 1, 3 and 6 months): remains unchanged
- crystal form after storage [1, 4]: remains unchanged
- saturated solubility [2, 5]: 489.60 mg/mL
- saturated solubility [2, 6]: 522.25 mg/mL
- saturated solubility [2, 7]: 513.40 mg/mL
- saturated solubility [2, 8]: 460.64 mg/mL
- saturated solubility [2, 9]: 554.17 mg/mL
- saturated solubility [2, 10]: 494.83 mg/mL
- saturated solubility [2, 11]: 562.59 mg/mL
- solubility at 4 h ([2]; water, 37 °C, pH 1, simulated gastric fluid, thermodynamic from solid, pH 1.0, water): 587 mg/mL
- Cmax [3, 12]: 133 ng/mL
- absorption in the body compared with the free alkali of the compound of Formula I ([3]; 5 mg/kg): better absorbed
- AUC(0-inf) [3, 13]: 1620 ng·h/mL
- AUC(0-t) [3, 13]: 1400 ng·h/mL
- Tmax ([3]; male, beagle, dog, plasma, po, 5 mg/kg, 5 mg/kg (as free base), plasma, read-out: Tmax): 2.67 h
Compound: CN1CCN(Cc2ccc(-c3cn([C@H]4CC[C@H](O)CC4)c4nc(NCCC5CC5)ncc34)cc2)CC1 [Crystal Form 1, trihydrochloride]

- saturated solubility ([2]; pH 1.0, water): 301.086 mg/mL
- saturated solubility ([2]; pH 2.0, water): 3.110 mg/mL
- saturated solubility ([2]; pH 3.0, water): 1.516 mg/mL
- saturated solubility ([2]; pH 4.5, water): 2.034 mg/mL
- saturated solubility ([2]; pH 6.0, water): 0.018 mg/mL
- saturated solubility ([2]; pH 6.8, water): 0.008 mg/mL
- saturated solubility ([2]; pH 7.4, water): 0.007 mg/mL
- saturated solubility ([2]; pH 8.0, water): 0.008 mg/mL
- AUCInf [3, 14]: 1,318 h * ng/mL
- AUClast [3, 14]: 1,169 h * ng/mL
- Cmax [3, 14]: 285 ng/mL
- Tmax [3, 14]: 3.33 h
Compound: CN1CCN(Cc2ccc(-c3cn([C@H]4CC[C@H](O)CC4)c4nc(NCCC5CC5)ncc34)cc2)CC1 [MRX-2843 free base, reference compound]
